In publication PMC4932617 (Meta Gene, 2016):

Assays:
[1] = higher in poor than in extensive metabolizers; ref Klotz, 2006; cited from earlier work
intra-gastric pH = assay: Intra-gastric pH monitoring; type: in vivo, human; details: for pH on Day 6: n=1; for Difference in intra-gastric pH between baseline and day 6: rapid and ultra-rapid metabolizers (CYP2C19*17 carriers)

Compound | AUC in poor metabolizers relative to extensive metabolizers [1] | Difference in intra-gastric pH between baseline and day 6 (intra-gastric pH; 40 mg/day for 5 days) | other results
COc1ccc2[nH]c([S+]([O-])Cc3ncc(C)c(OC)c3C)nc2c1 (stereo not drawn) [omeprazole] | 7.5 fold | – | –
COCCCOc1ccnc(C[S+]([O-])c2nc3ccccc3[nH]2)c1C (stereo not drawn) [rabeprazole] | 4 fold | – | –
COc1ccnc(C[S+]([O-])c2nc3ccc(OC(F)F)cc3[nH]2)c1OC (stereo not drawn) [Pantoprazole] | – | noteworthy differences could not be observed | pH on Day 6 (intra-gastric pH; normal metabolizer, pantoprazole 40 mg/day for 5 days, baseline pH 1.50): 4.10; Gastric acid suppression compared to esomeprazole (intra-gastric pH; poor and intermediate metabolizers, 40 mg/day for 5 days): improved gastric acid suppression
COc1ccc2nc([S@@+]([O-])Cc3ncc(C)c(OC)c3C)[nH]c2c1 [Esomeprazole] | – | noteworthy differences could not be observed | pH on Day 6 (intra-gastric pH; normal metabolizer, esomeprazole 40 mg/day for 5 days, baseline pH 0.40): 3.40; pH on Day 6 (intra-gastric pH; rapid metabolizer, esomeprazole 40 mg/day for 5 days, baseline pH 1.25): 1.20
Cc1c(OCC(F)(F)F)ccnc1C[S+]([O-])c1nc2ccccc2[nH]1 (stereo not drawn) [lansoprazole] | 4.5 fold | – | –
